Laboratory results published in ChEMBL document CHEMBL1146903, “Modification of the clozapine structure by parallel synthesis” (Bioorg Med Chem Lett, 2006).

Tests used:
[1] = biological target: D(1A) dopamine receptor (Homo sapiens, UniProt P21728); assay: Displacement of [3H]SCH 23390 from dopamine D1 receptor expressed in CHO cells; type: cell-based
[2] = biological target: D(2) dopamine receptor (Homo sapiens, UniProt P14416); assay: Displacement of [3H]methylspiperone from dopamine D2 receptor expressed in CHO cells; type: cell-based
D(2) dopamine receptor, sequence (P14416 whole entry): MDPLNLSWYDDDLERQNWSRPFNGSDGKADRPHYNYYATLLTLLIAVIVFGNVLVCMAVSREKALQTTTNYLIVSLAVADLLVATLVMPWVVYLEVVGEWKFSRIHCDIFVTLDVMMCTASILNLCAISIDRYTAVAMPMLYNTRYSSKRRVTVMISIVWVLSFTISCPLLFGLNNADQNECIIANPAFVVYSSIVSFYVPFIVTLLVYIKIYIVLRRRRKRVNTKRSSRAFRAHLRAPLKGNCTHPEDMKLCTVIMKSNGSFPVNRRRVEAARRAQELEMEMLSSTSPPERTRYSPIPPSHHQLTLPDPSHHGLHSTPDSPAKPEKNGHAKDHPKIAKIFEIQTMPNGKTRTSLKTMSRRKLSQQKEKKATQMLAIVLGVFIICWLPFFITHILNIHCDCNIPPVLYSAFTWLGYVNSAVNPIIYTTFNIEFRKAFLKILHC

D(1A) dopamine receptor, sequence (P21728 whole entry): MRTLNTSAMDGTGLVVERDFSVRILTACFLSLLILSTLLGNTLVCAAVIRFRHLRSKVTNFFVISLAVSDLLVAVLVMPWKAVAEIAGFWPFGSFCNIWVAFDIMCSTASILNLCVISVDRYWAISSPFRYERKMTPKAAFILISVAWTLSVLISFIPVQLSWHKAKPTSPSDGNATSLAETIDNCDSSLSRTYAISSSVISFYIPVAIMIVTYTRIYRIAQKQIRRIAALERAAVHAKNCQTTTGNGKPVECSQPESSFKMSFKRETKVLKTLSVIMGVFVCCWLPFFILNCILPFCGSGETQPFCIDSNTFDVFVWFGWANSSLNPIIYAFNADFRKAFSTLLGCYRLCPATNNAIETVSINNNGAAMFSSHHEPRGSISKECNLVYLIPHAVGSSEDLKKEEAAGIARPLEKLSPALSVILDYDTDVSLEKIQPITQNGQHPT

| SMILES | Ki [1] | Ki [2] |
| --- | --- | --- |
| CN1CCN(C2=Nc3ccccc3N(NC(=O)c3cccc(C#N)c3)c3ccc(Cl)cc32)CC1 | 99 nM | 1190 nM |
| CN1CCN(C2=Nc3cc(Cl)ccc3N(NC(=O)c3cccc(C#N)c3)c3ccc(Cl)cc32)CC1 | 47 nM | 175 nM |
| CN1CCN(C2=Nc3ccccc3N(NC(=O)c3cc(F)c(F)c(F)c3F)c3ccc(Cl)cc32)CC1 | 156 nM | 759 nM |
| Cc1ccccc1S(=O)(=O)N1c2ccc(Cl)cc2N=C(N2CCN(C)CC2)c2ccccc21 | 71 nM | 63 nM |
| CN1CCN(C2=Nc3cc(Cl)ccc3N(NC(=O)c3ccccc3Br)c3ccccc32)CC1 | 16 nM | 792 nM |
| COc1ccc(C(=O)NN2c3ccc(Cl)cc3N=C(N3CCN(C)CC3)c3ccccc32)cc1 |  | > 3000 nM |
| CC(C)N1CCN(C2=Nc3cc(Cl)ccc3N(NC(=O)c3ccccc3Cl)c3ccccc32)CC1 | 191 nM | 998 nM |
| COc1cc(C(=O)NN2c3ccccc3N=C(N3CCN(C)CC3)c3cc(Cl)ccc32)cc(OC)c1OC | 20 nM | 3230 nM |
| Cc1ccccc1C(=O)NN1c2ccc(Cl)cc2N=C(N2CCN(C)CC2)c2cc(Cl)ccc21 | 2 nM | 175 nM |
| COc1cc(C(=O)NN2c3ccc(Cl)cc3N=C(N3CCN(C)CC3)c3cc(Cl)ccc32)cc(OC)c1OC | 16 nM | 267 nM |
| CN1CCN(C2=Nc3cc(Cl)ccc3N(NC(=O)c3cccc(C(F)(F)F)c3)c3ccccc32)CC1 | 148 nM | 1360 nM |
| CN1CCN(C2=Nc3cc(Cl)ccc3N(NC(=O)c3cccc(F)c3F)c3ccccc32)CC1 | 16 nM |  |
| CN1CCN(C2=Nc3ccccc3N(NC(=O)c3ccc4c(c3)OCO4)c3ccc(Cl)cc32)CC1 | 83 nM | 1260 nM |
| CN1CCN(C2=Nc3cc(Cl)ccc3N(NC(=O)c3ccc(F)cc3C(F)(F)F)c3ccccc32)CC1 | 49 nM | 1620 nM |
| O=C(NN1c2ccc(Cl)cc2N=C(N2CCN(CC3CCCCC3)CC2)c2ccccc21)c1ccccc1Cl | 294 nM | > 3000 nM |
| CN1CCN(C2=Nc3cc(Cl)ccc3N(NC(=O)c3cccc(C#N)c3)c3ccccc32)CC1 | 62 nM | 3650 nM |
| CN1CCN(C2=Nc3cc(Cl)ccc3N(NC(=O)c3cc(F)ccc3C(F)(F)F)c3ccc(Cl)cc32)CC1 | 24 nM | 69 nM |
| O=C(NN1c2ccc(Cl)cc2N=C(N2CCN(Cc3cccc4c3OCO4)CC2)c2ccccc21)c1ccccc1Cl | 571 nM | > 2000 nM |
| CN1CCN(C2=Nc3cc(Cl)ccc3N(NC(=O)c3ccccc3Cl)c3ccccc32)CC1 | 4.1 nM |  |
| CN1CCN(C2=Nc3ccccc3N(NC(=O)c3ccccc3I)c3ccc(Cl)cc32)CC1 | 7 nM | 231 nM |

| SMILES | Ki [1] | Ki [2] |
| --- | --- | --- |
| Clc1ccc2c(c1)N=C(N1CCN(Cc3cccc4c3OCO4)CC1)c1ccccc1N2 | 637 nM | 80 nM |
| FC1(F)Oc2cccc(CN3CCN(C4=Nc5cc(Cl)ccc5Nc5ccccc54)CC3)c2O1 | 3110 nM | 8 nM |
| CN1CCN(C2=Nc3cc(Cl)ccc3N(NC(=O)c3cccnc3)c3ccccc32)CC1 | 85 nM | 12700 nM |
| COc1cccc(OC)c1C(=O)NN1c2ccc(Cl)cc2N=C(N2CCN(C)CC2)c2cc(Cl)ccc21 | 11 nM | 97 nM |
| Cc1ccc(S(=O)(=O)N2c3ccc(Cl)cc3N=C(N3CCN(C)CC3)c3ccccc32)cc1 | 65 nM | 338 nM |
| FC(F)(F)Oc1cccc(CN2CCN(C3=Nc4cc(Cl)ccc4Nc4ccccc43)CC2)c1 | 3800 nM | 3.4 nM |
| CN1CCN(C2=Nc3cc(Cl)ccc3N(NC(=O)c3ccc(C#N)cc3)c3ccccc32)CC1 | 68 nM | > 2000 nM |
| CN1CCN(C2=Nc3cc(Cl)ccc3N(NC(=O)c3ccccc3I)c3ccc(Cl)cc32)CC1 | 12 nM | 36 nM |
| CCN1CCN(C2=Nc3cc(Cl)ccc3N(NC(=O)c3ccccc3Cl)c3ccccc32)CC1 | 54 nM | 709 nM |
| O=C(NN1c2ccc(Cl)cc2N=C(N2CCN(Cc3cccc(OC(F)(F)F)c3)CC2)c2ccccc21)c1ccccc1Cl | 2570 nM | > 3000 nM |
| CN1CCN(C2=Nc3cc(Cl)ccc3N(NC(=O)c3ccc4c(c3)OCO4)c3ccccc32)CC1 | 56 nM | 828 nM |
| Cc1ccc(CN2CCN(C3=Nc4cc(Cl)ccc4Nc4ccccc43)CC2)c(C)c1 | 482 nM | 65 nM |
| O=C(NN1c2ccc(Cl)cc2N=C(N2CCN(Cc3cccc4c3OC(F)(F)O4)CC2)c2ccccc21)c1ccccc1Cl | 4750 nM | > 3000 nM |
| O=C(NN1c2ccc(Cl)cc2N=C(N2CCN(Cc3ccccc3F)CC2)c2ccccc21)c1ccccc1Cl | 503 nM | > 2000 nM |
| CN1CCN(C2=Nc3cc(Cl)ccc3N(C(=O)Nc3cc(Cl)cc(Cl)c3)c3ccccc32)CC1 | 175 nM | 3900 nM |
| COc1cccc(C(=O)NN2c3ccccc3N=C(N3CCN(C)CC3)c3cc(Cl)ccc32)c1 | 86 nM | 1380 nM |
| Cc1ccc(CN2CCN(C3=Nc4cc(Cl)ccc4N(NC(=O)c4ccccc4Cl)c4ccccc43)CC2)c(C)c1 | 1100 nM | > 3000 nM |
| CN1CCN(C2=Nc3cc(Cl)ccc3N(NC(=O)c3ccc4c(c3)OCO4)c3ccc(Cl)cc32)CC1 | 130 nM | 286 nM |
| CN1CCN(C2=Nc3cc(Cl)ccc3N(NC(=O)c3ccc(C#N)cc3)c3ccc(Cl)cc32)CC1 | 51 nM | 194 nM |
| O=C(NN1c2ccc(Cl)cc2N=C(N2CCN(Cc3ccc(F)cc3F)CC2)c2ccccc21)c1ccccc1Cl | 886 nM | > 3000 nM |

| SMILES | Ki [1] | Ki [2] |
| --- | --- | --- |
| COc1cccc(OC)c1C(=O)NN1c2ccccc2N=C(N2CCN(C)CC2)c2cc(Cl)ccc21 | 6 nM | 197 nM |
| COc1ccccc1CNN1c2ccc(Cl)cc2N=C(N2CCN(C)CC2)c2ccccc21 | 60 nM | 202 nM |
| Cc1ccccc1C(=O)NN1c2ccccc2N=C(N2CCN(C)CC2)c2cc(Cl)ccc21 | 48 nM | 1570 nM |
| COc1cc(C(=O)NN2c3ccc(Cl)cc3N=C(N3CCN(C)CC3)c3ccccc32)cc(OC)c1OC | 31 nM | 5560 nM |
| CC(C)CN1CCN(C2=Nc3cc(Cl)ccc3N(NC(=O)c3ccccc3Cl)c3ccccc32)CC1 | 81 nM | > 3000 nM |
| CCCN1CCN(C2=Nc3cc(Cl)ccc3N(NC(=O)c3ccccc3Cl)c3ccccc32)CC1 | 26 nM | 409 nM |
| CC(C)(C)CN1CCN(C2=Nc3cc(Cl)ccc3N(NC(=O)c3ccccc3Cl)c3ccccc32)CC1 | 447 nM | > 3000 nM |
| O=C(NN1c2ccc(Cl)cc2N=C(N2CCN(Cc3ccc4c(c3)OCCO4)CC2)c2ccccc21)c1ccccc1Cl | 238 nM | > 2000 nM |
| Fc1ccc(CN2CCN(C3=Nc4cc(Cl)ccc4Nc4ccccc43)CC2)c(F)c1 | 835 nM | 177 nM |
| Clc1ccc2c(c1)N=C(N1CCN(Cc3ccc4c(c3)OCCO4)CC1)c1ccccc1N2 | 583 nM | 29 nM |
| CN1CCN(C2=Nc3cc(Cl)ccc3N(NC(=O)c3ccncc3)c3ccccc32)CC1 | 86 nM | 28400 nM |
| CCC(CC)CN1CCN(C2=Nc3cc(Cl)ccc3N(NC(=O)c3ccccc3Cl)c3ccccc32)CC1 | 505 nM | > 3000 nM |
| CN1CCN(C2=Nc3ccccc3N(NC(=O)c3ccc(C#N)cc3)c3ccc(Cl)cc32)CC1 | 64 nM | 1970 nM |
| Cc1ccccc1C(=O)N1c2ccc(Cl)cc2N=C(N2CCN(C)CC2)c2ccccc21 | 1230 nM | 4930 nM |
| COc1cccc(C(=O)NN2c3ccc(Cl)cc3N=C(N3CCN(C)CC3)c3cc(Cl)ccc32)c1 | 44 nM | 139 nM |
| CN1CCN(C2=Nc3cc(Cl)ccc3N(NC(=O)c3cc(F)c(F)c(F)c3F)c3ccccc32)CC1 | 32 nM | 1280 nM |
| CN1CCN(C2=Nc3cc(Cl)ccc3N(NC(=O)c3cc(F)c(F)c(F)c3F)c3ccc(Cl)cc32)CC1 | 98 nM | 270 nM |
| COc1ccccc1C(=O)NN1c2ccc(Cl)cc2N=C(N2CCN(C)CC2)c2ccccc21 | 13 nM | 1130 nM |
| CN1CCN(C2=Nc3ccccc3N(NC(=O)c3cc(F)ccc3C(F)(F)F)c3ccc(Cl)cc32)CC1 | 22 nM | 421 nM |
